Reference: US8440710B2, “HSL inhibitors useful in the treatment of diabetes” (Hoffmann-La Roche Inc., priority 2009, dated 2013)

Molecular target: T1, human HSL (Homo sapiens, UniProt Q05469)
T1 construct: generate a full length human HSL ORF with a 3′-His6 tag; made in house; host or cells: High 5 insect cells (baculovirus, pFast-BAC)
T1 sequence (Q05469 1-1076): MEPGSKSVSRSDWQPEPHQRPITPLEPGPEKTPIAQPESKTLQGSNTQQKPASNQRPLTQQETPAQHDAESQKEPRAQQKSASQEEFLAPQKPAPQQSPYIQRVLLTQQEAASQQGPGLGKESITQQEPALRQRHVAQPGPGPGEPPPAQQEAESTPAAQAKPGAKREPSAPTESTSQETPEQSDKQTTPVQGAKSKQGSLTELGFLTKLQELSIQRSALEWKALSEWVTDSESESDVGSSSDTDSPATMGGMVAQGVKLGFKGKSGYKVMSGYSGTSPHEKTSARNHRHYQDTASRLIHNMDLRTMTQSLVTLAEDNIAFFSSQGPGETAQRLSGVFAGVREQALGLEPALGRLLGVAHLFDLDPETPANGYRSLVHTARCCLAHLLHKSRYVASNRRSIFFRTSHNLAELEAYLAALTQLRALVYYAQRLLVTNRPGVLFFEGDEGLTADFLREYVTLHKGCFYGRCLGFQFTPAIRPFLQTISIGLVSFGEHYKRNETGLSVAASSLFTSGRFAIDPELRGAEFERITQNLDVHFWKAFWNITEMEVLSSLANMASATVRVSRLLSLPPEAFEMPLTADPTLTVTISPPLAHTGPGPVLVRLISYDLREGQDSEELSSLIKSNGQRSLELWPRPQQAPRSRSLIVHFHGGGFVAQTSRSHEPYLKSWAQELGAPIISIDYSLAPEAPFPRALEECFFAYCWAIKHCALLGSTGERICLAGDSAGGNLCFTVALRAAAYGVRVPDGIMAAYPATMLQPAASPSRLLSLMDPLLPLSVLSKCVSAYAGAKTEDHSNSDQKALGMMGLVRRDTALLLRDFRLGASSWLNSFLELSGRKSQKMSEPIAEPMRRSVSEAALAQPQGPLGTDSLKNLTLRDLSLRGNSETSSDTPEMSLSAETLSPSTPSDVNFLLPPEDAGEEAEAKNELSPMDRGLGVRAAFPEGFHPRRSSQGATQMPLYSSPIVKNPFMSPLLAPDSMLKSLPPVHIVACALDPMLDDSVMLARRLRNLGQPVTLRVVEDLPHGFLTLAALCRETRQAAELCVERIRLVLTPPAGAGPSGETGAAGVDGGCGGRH
Assay: Human Hormone-Sensitive Lipase (HSL) enzyme inhibition assay (colorimetric, DMPT substrate)
Assay type: biochemical
Settings: human full length HSL-His6, 2,3-dimercapto-1-propanol tributyrate substrate, 37° C. 20 minutes, absorbance at 405 nm; read-out: HSL hum IC50
Summary of the method: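 Full-length human HSL with C-terminal His6, expressed in baculovirus-infected High 5 cells and Ni-NTA purified, was added (15 ug/ml stock) to 1.5 mM DMPT in 100 mM MOPS pH 7.2, 0.2 mg/ml fatty acid-free BSA containing compound. After 20 min at 37 °C, DTNB with SDS/Triton X-100 was added; A405 read after 15 min at RT.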

SMILES | IC50 [nM]
CCC[C@]1(O)CC[C@]2(CCN(c3ccc(CCOC)cc3)C2=O)CC1 [Example 122, (5α,8α)-8-Hydroxy-2-[4-(2-methoxy-ethyl)-phenyl]-8-propyl-2-aza-spiro[4.5]decan-1-one] | 50
COCCc1ccc(N2CC[C@]3(CC[C@@](O)(C(F)(F)F)CC3)C2=O)cc1 [Example 123, (5α,8α)-8-Hydroxy-2-[4-(2-methoxy-ethyl)-phenyl]-8-trifluoromethyl-2-aza-spiro[4.5]decan-1-one] | 420
COCCc1ccc(N2CC[C@]3(CC[C@@](O)(CC(C)C)CC3)C2=O)cc1 [Example 124, (5α,8α)-8-Hydroxy-8-isobutyl-2-[4-(2-methoxy-ethyl)-phenyl]-2-aza-spiro[4.5]decan-1-one] | 20
COCCc1ccc(N2CC[C@]3(CC[C@](O)(CC(C)C)CC3)C2=O)cc1 [Example 125, (5α,8β)-8-Hydroxy-8-isobutyl-2-[4-(2-methoxy-ethyl)-phenyl]-2-aza-spiro[4.5]decan-1-one] | 1810
COCCc1ccc(N2CC[C@]3(CC[C@@](O)(CC(C)(C)C)CC3)C2=O)cc1 [Example 126, (5α,8α)-8-(2,2-Dimethyl-propyl)-8-hydroxy-2-[4-(2-methoxy-ethyl)-phenyl]-2-aza-spiro[4.5]decan-1-one] | 10
C=C(C)[C@]1(O)CC[C@]2(CCN(c3ccc(CCOC)cc3)C2=O)CC1 [Example 127, (5α,8α)-8-Hydroxy-8-isopropenyl-2-[4-(2-methoxy-ethyl)-phenyl]-2-aza-spiro[4.5]decan-1-one] | 120
CCCC[C@]1(O)CC[C@]2(CCN(c3ccc(CCOC)cc3)C2=O)CC1 [Example 129, (5α,8α)-8-Butyl-8-hydroxy-2-[4-(2-methoxy-ethyl)-phenyl]-2-aza-spiro[4.5]decan-1-one] | 20
CC[C@]1(O)CC[C@]2(CCN(c3ccc(C(C)(C)COC)cc3)C2=O)CC1 [Example 131, (5α,8α)-8-Ethyl-8-hydroxy-2-[4-(2-methoxy-1,1-dimethyl-ethyl)-phenyl]-2-aza-spiro[4.5]decan-1-one] | 90
CCC[C@]1(O)CC[C@]2(CCN(c3ccc(C(C)(C)COC)cc3)C2=O)CC1 [Example 132, (5α,8α)-8-Hydroxy-2-[4-(2-methoxy-1,1-dimethyl-ethyl)-phenyl]-8-propyl-2-aza-spiro[4.5]decan-1-one] | 20
CCCO[C@H](c1ccc(N2CC[C@]3(CC[C@@](O)(COC)CC3)C2=O)cc1)C(F)(F)F [Example 141, (5α,8α)-8-Hydroxy-8-(methoxymethyl)-2-(4-((R)-2,2,2-trifluoro-1-propoxyethyl)phenyl)-2-aza-spiro[4.5]decan-1-one] | 30
C=CC[C@]1(O)CC[C@]2(CCN(c3ccc(O[C@H](C)C(F)(F)F)cc3)C2=O)CC1 [Example 142, (5α,8α)-8-Allyl-8-hydroxy-2-[4-((R)-2,2,2-trifluoro-1-methyl-ethoxy)-phenyl]-2-aza-spiro[4.5]decan-1-one] | 10
C=CC[C@]1(O)CC[C@@]2(CCN(c3ccc(O[C@H](C)C(F)(F)F)cc3)C2=O)CC1 [Example 143, (5α,8β)-8-Allyl-8-hydroxy-2-[4-((R)-2,2,2-trifluoro-1-methyl-ethoxy)-phenyl]-2-aza-spiro[4.5]decan-1-one] | 1480
C[C@@H](Oc1ccc(N2CC[C@]3(CC[C@@](O)(COCc4ccccc4)CC3)C2=O)cc1)C(F)(F)F [Example 144, (5α,8α)-8-(Benzyloxymethyl)-8-hydroxy-2-[4-((R)-2,2,2-trifluoro-1-methyl-ethoxy)-phenyl]-2-aza-spiro[4.5]decan-1-one] | 10
COC[C@]1(O)CC[C@]2(CCN(c3ccc(O[C@@H](C)C(F)(F)F)cc3)C2=O)CC1 [Example 146, (5α,8α)-8-Hydroxy-8-methoxymethyl-2-[4-((S)-2,2,2-trifluoro-1-methyl-ethoxy)-phenyl]-2-aza-spiro[4.5]decan-1-one] | 20

Continued, values first:

IC50 [nM] | SMILES
50 | COCCc1ccc(N2CC[C@]3(CC[C@@](O)(C(C)C)CC3)C2=O)cc1 [Example 128, (5α,8α)-8-Hydroxy-8-isopropyl-2-[4-(2-methoxy-ethyl)-phenyl]-2-aza-spiro[4.5]decan-1-one]
50 | COCCCc1ccc(N2CC[C@]3(CC[C@@](O)(C(C)C)CC3)C2=O)cc1 [Example 130, (5α,8α)-8-Hydroxy-8-isopropyl-2-(4-(3-methoxypropyl)phenyl)-2-aza-spiro[4.5]decan-1-one]
50 | CCC[C@]1(O)CC[C@]2(CCN(c3ccc([C@H](O)C(F)(F)F)cc3)C2=O)CC1 [Example 133a, (5α,8α)-8-Hydroxy-8-propyl-2-[4-((S)-2,2,2-trifluoro-1-hydroxy-ethyl)-phenyl]-2-aza-spiro[4.5]decan-1-one]
30 | CCC[C@]1(O)CC[C@]2(CCN(c3ccc([C@@H](O)C(F)(F)F)cc3)C2=O)CC1 [Example 133b, (5α,8α)-8-Hydroxy-8-propyl-2-[4-((R)-2,2,2-trifluoro-1-hydroxy-ethyl)-phenyl]-2-aza-spiro[4.5]decan-1-one]
1180 | CCC[C@]1(O)CC[C@@]2(CCN(c3ccc(C(O)C(F)(F)F)cc3)C2=O)CC1 (stereo partly drawn) [Example 134, (5α,8β)-8-Hydroxy-8-propyl-2-(4-(2,2,2-trifluoro-1-hydroxyethyl)phenyl)-2-aza-spiro[4.5]decan-1-one]
20 | CC(C)[C@]1(O)CC[C@]2(CCN(c3ccc([C@@H](O)C(F)(F)F)cc3)C2=O)CC1 [Example 135, (5α,8α)-8-Hydroxy-8-isopropyl-2-[4-((R)-2,2,2-trifluoro-1-hydroxy-ethyl)-phenyl]-2-aza-spiro[4.5]decan-1-one]
2760 | CC(C)[C@]1(O)CC[C@@]2(CCN(c3ccc([C@@H](O)C(F)(F)F)cc3)C2=O)CC1 [Example 136, (5α,8β)-8-Hydroxy-8-isopropyl-2-(4-((R)-2,2,2-trifluoro-1-hydroxy-ethyl)-phenyl)-2-aza-spiro[4.5]decan-1-one]
10 | CO[C@H](c1ccc(N2CC[C@]3(CC[C@@](O)(C(C)C)CC3)C2=O)cc1)C(F)(F)F [Example 137, (5α,8α)-8-Hydroxy-8-isopropyl-2-(4-((R)-2,2,2-trifluoro-1-methoxyethyl)phenyl)-2-aza-spiro[4.5]decan-1-one]
100 | COC[C@]1(O)CC[C@]2(CCN(c3ccc([C@@H](O)C(F)(F)F)cc3)C2=O)CC1 [Example 138, (5α,8α)-8-Hydroxy-8-(methoxymethyl)-2-(4-((R)-2,2,2-trifluoro-1-hydroxyethyl)phenyl)-2-aza-spiro[4.5]decan-1-one]
40 | COC[C@]1(O)CC[C@]2(CCN(c3ccc([C@@H](OC)C(F)(F)F)cc3)C2=O)CC1 [Example 139, (5α,8α)-8-Hydroxy-8-(methoxymethyl)-2-(4-((R)-2,2,2-trifluoro-1-methoxyethyl)phenyl)-2-aza-spiro[4.5]decan-1-one]
160 | CCO[C@H](c1ccc(N2CC[C@]3(CC[C@@](O)(COC)CC3)C2=O)cc1)C(F)(F)F [Example 140, (5α,8α)-2-(4-((R)-1-Ethoxy-2,2,2-trifluoroethyl)phenyl)-8-hydroxy-8-(methoxymethyl)-2-aza-spiro[4.5]decan-1-one]
390 | C[C@@H](Oc1ccc(N2CC[C@]3(CC[C@@](O)(CO)CC3)C2=O)cc1)C(F)(F)F [Example 145, (5α,8α)-8-Hydroxy-8-(hydroxymethyl)-2-[4-((R)-2,2,2-trifluoro-1-methyl-ethoxy)-phenyl]-2-aza-spiro[4.5]decan-1-one]
30 | COC[C@]1(O)CC[C@]2(CCN(c3ccc(O[C@H](C)C(F)(F)F)cc3)C2=O)CC1 [Example 147, (5α,8α)-8-Hydroxy-8-(methoxymethyl)-2-[4-((R)-2,2,2-trifluoro-1-methyl-ethoxy)-phenyl]-2-aza-spiro[4.5]decan-1-one]
20 | CC(C)[C@]1(O)CC[C@]2(CCN(c3ccc(O[C@@H](C)C(F)(F)F)nc3)C2=O)CC1 [Example 148, (5α,8α)-8-Hydroxy-8-isopropyl-2-[6-((S)-2,2,2-trifluoro-1-methyl-ethoxy)pyridin-3-yl]-2-aza-spiro[4.5]decan-1-one]
